Measured values as given in paper PMC5735135, “Oxidative rearrangement of (+)-sesamin by CYP92B14 co-generates twin dietary lignans in sesame” (Nature Communications, 2017).

Assays:
CYP81Q1 = biological target: T1, CYP81Q1 (Sesamum indicum, UniProt Q33DY0); test: HPLC of products formed by yeast cells ([…] nm); type: cell-based; conditions: CPR1 and CYP92B14 co-expressed, 48 h
T1 construct: full-length ORF expressed in yeast INVSc with sesame CPR1 (and CYP92B14); whole yeast cells
T1 sequence (Q33DY0 1-506): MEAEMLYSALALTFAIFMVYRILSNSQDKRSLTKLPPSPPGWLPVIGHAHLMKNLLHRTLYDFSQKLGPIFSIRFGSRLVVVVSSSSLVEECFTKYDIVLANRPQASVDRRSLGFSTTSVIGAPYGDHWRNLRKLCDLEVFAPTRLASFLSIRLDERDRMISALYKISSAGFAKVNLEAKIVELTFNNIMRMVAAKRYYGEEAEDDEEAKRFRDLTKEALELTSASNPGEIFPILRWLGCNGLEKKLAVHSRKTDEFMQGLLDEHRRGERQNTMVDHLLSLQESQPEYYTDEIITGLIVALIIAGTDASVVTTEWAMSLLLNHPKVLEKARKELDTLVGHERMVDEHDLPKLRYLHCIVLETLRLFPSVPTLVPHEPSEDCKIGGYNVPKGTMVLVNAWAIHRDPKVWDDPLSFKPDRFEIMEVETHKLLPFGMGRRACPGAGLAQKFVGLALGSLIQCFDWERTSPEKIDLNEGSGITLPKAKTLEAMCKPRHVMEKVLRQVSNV

CYP92B14 [1] = biological target: T2, CYP92B14 (Sesamum indicum, UniProt A0A2Z5U627); test: HPLC of products formed by yeast microsomes; type: biochemical; conditions: 100 uM (+)-sesamin, 1 mM NADPH, CPR1 co-expressed, 37 °C, 60 min
T2 construct: full-length ORF expressed in yeast INVSc with sesame CPR1 (GenBank LC209223) as reductase; microsomes or whole yeast cells
T2 sequence (A0A2Z5U627 1-513): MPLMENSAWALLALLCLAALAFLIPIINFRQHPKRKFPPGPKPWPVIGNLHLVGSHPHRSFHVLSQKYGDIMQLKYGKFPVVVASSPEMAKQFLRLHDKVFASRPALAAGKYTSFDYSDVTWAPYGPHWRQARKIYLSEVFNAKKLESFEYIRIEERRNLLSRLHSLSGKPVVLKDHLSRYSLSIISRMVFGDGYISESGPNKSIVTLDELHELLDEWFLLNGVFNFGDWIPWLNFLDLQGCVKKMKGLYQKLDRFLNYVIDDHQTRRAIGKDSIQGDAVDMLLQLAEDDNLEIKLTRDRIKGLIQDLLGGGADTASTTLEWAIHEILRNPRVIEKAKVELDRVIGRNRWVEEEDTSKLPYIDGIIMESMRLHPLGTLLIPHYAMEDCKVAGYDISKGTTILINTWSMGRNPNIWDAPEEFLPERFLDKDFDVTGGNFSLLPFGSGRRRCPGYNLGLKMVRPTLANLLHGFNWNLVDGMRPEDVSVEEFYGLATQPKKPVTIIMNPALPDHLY

CYP92B14 [2] = biological target: T2, CYP92B14; test: inhibition of (+)-sesamolin and (+)-sesaminol formation; type: cell-based; conditions: substrate (+)-sesamin; also a reaction by-product

Row | Structure (SMILES) | HPLC of products formed by yeast microsomes (CYP92B14 [1]) | inhibition of (+)-sesamolin and (+)-sesaminol formation (CYP92B14 [2]) | other results
1 | COc1cc([C@H]2OC[C@H]3[C@@H]2CO[C@@H]3c2ccc(O)c(OC)c2)ccc1O [(+)-pinoresinol] |  |  | HPLC of products formed by yeast cells (283 nm) (CYP81Q1): co-expressing CYP81Q1, CYP92B14, and CPR1 converted (+)-pinoresinol to (+)-sesaminol and (+)-sesamolin via (+)-sesamin
2 | c1cc2c(cc1[C@H]1OC[C@H]3[C@@H]1CO[C@@H]3c1ccc3c(c1)OCO3)OCO2 [(+)-sesamin] | yeast cells expressing CYP92B14 and CPR1 converted (+)-sesamin to (+)-sesamolin |  | 
3 | OC1OC[C@@H]2[C@@H](c3ccc4c(c3)OCO4)OC[C@H]12 (single isomer, unassigned; (+)) [(+)-samin] |  | the supplementation of these two compounds clearly inhibited the biosynthetic activity of CYP92B14 | 
4 | Oc1ccc2c(c1)OCO2 [sesamol] |  | the supplementation of these two compounds clearly inhibited the biosynthetic activity of CYP92B14 | 
5 | c1cc2c(cc1O[C@H]1OC[C@H]3[C@@H]1CO[C@@H]3c1ccc3c(c1)OCO3)OCO2 [(+)-sesamolin] | yeast cells expressing CYP92B14 and CPR1 converted (+)-sesamin to (+)-sesamolin |  | 
